In the assay the target is Metabotropic glutamate receptor 4 (Homo sapiens, UniProt Q14833). Nature of the assay: In Vitro Testing of mGluR4 Potency. As to the method:
The in vitro activity of the compounds according to the invention may be investigated as follows:[0111]The HEK293 cell overexpressing the human metabotropic Glutamate 4 receptor are thawed at 37 C. and immediately diluted with cell culture medium. After centrifugation, the cell pellet is re-suspended in medium and then distributed from a stirred spinner flask into the wells of the assay plate. The plates are incubated for one hour at room temperature before they are incubated for 24 hours at 37 C./5% CO2. After washing the cells in the plate three times with 80 uL HBSS/HEPES buffer (10 uL buffer remained in the wells after washing), 5 uL per well of compounds diluted in HBSS/HEPES buffer containing 0.2% BSA (final concentration: 0.1%) and 1 mM IBMX (final concentration: 0.5 mM) are added to the wells of the assay plate. Thereafter 5 uL per well of L-Glutamic acid (final concentration: 10 uM), forskolin (final concentration: 1 uM) and 1 mM IBMX (final concentration: 0.5 mM) dissolved in HBSS/HEPES buffer containing 0.2% BSA (final concentration: 0.1%) are added to the assay plate (final DMSO concentration: 1%). […] The emission at 615 nm and 665 nm (Excitation wavelength: 320 nm) are measured on the EnVision reader (Perkin Elmer). The ratio between the emission at 665 nm and 615 is calculated by the reader. […]

For orientation: IC50 means the midpoint of a concentration-inhibition curve. A lower IC50 goes with greater potency.

Structures are written as SMILES.

Chain of Metabotropic glutamate receptor 4 (Q14833 whole entry): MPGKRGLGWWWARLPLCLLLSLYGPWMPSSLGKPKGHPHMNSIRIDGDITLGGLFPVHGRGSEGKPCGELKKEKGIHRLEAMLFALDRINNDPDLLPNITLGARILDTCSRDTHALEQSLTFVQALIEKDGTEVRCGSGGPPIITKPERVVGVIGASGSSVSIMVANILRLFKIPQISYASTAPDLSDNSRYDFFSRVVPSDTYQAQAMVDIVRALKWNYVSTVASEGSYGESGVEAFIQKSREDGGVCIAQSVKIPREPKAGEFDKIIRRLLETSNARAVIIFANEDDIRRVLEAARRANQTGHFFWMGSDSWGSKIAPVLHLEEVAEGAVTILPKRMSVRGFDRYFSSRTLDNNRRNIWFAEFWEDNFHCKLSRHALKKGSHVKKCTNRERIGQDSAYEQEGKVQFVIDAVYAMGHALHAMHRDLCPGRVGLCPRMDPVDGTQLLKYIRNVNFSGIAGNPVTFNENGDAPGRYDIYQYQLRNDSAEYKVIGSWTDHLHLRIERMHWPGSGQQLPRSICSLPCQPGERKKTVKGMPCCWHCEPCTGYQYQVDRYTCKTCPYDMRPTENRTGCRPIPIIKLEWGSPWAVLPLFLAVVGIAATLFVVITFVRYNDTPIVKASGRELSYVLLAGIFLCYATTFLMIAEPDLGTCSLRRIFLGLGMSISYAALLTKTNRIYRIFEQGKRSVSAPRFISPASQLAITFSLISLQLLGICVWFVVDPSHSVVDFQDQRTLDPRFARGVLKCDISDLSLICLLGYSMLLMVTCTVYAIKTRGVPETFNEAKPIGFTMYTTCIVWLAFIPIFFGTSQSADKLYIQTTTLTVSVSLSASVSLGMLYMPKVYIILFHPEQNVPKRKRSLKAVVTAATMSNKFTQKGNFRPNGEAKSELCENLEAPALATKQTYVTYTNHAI

Compound `Cc1cnc(C(=O)N[C@H](c2nc3cc(F)c(F)cc3n2C)C2CC2)cn1` [US20240182453, Example 66] came in with an IC50 of 23 nM.

The values above are taken from BindingDB's records for patent US20240182453 (Boehringer Ingelheim International, 2024).
